A short description of series [1]: Solubility of optional additional components in non-aqueous solvents. Format: physicochemical. The text has this:
Additional ingredients were chosen for their compatibility with (e.g., miscibility in) 1,3 propanediol, 1,2 propanediol, and 1,3 butanediol.

Another series concerns melasma. The settings on record: cited from earlier work.
The conditions of series [2]: cited from earlier work.
A short description of series [3]: Maximum concentration of azelaic acid solubilized with heat in a given solvent without precipitation upon cooling. The class given is physicochemical. As to conditions: in dimethyl isosorbide, relative to the approximately 10 to 12% of the diols. An excerpt: In order to determine a desirable ratio of azelaic acid to urea for certain compositions of this disclosure, the maximum concentration for azelaic acid that can be solubilized is first determined, with heat exposure, in a given solvent without precipitation upon cooling.

Series [4] in a line: Ability of polyol solvents to solubilize azelaic acid. Format: physicochemical. Here is the method: A series of experiments were performed to assess and optimize the components of the subject formulations.
The subject of series [5] is transepidermal water loss. The settings on record: in vivo; cited from earlier work.
The subject of the next series is erythema (skin redness). As to conditions: concentrations of 0.2%; cited from earlier work.

On to `CC1(C)[C@@H](O[C@H]2O[C@H](C(=O)O)[C@@H](O)[C@H](O)[C@H]2O[C@@H]2O[C@H](C(=O)O)[C@@H](O)[C@H](O)[C@H]2O)CC[C@]2(C)[C@H]3C(=O)C=C4[C@@H]5C[C@@](C)(C(=O)O)CC[C@]5(C)CC[C@@]4(C)[C@]3(C)CC[C@@H]12` [glycyrrhizic acid], for which the solubility result in series [1] (in 1,3-propanediol) is listed as “shows solubility”.
`O=C(O)CCCCCCCC(=O)O` [azelaic acid]: the “treatment differences in overall rating, reduction in lesion size and pigmentary intensity” value with melasma (20% azelaic acid compared to 4% hydroquinone) was “no significant treatment differences”. In addition, the “allergic sensitization or exogenous ochronosis” value in the series with melasma (20% azelaic acid) was “no allergic sensitization or exogenous ochronosis observed”. Further, the “good or excellent results in lightening melasma” value in the series with melasma (20% azelaic acid) is given as 65%. For the same compound, in series [2] (cosmetic oils), the “solubility in cosmetic oils” value is “little or no solubility”. Also, in series [2] (ethyl alcohol, normal temperatures), the “stability of azelaic acid in alcohol” value is on record as “unstable”. For the same compound, the “maximum azelaic acid in a water and azelaic acid solution” value in series [2] (water) is listed as “about 0.24 % by weight (w/w)”. Also, in series [3], the “maximum concentration for azelaic acid that can be solubilized” value is “significantly lower”. Moreover, the “ability to solubilize azelaic acid” value is reported as “moderate” in series [4] (solvent 1,2-hexanediol used alone); “moderate” in series [4] (solvent 1,2-propanediol (propylene glycol)); “moderate” in series [4] (solvent 1,3-butanediol (butylene glycol)); “moderate” in series [4] (solvent 1,3-propanediol); “moderate” in series [4] (solvent 1,5-pentanediol (pentylene glycol)); “very limited” in series [4] (solvent dimethyl isosorbide). The “ability to solubilize azelaic acid” value in series [4] (solvents glycerin and diglycerin) was “moderate and low”.
`CC(C)(CO)[C@@H](O)C(=O)NCCCO` [Panthenol]: in series [5], the “concentration at which inhibition of transepidermal water loss is apparent” value was no less than 1%.
As for madecassoside, the solubility result in series [1] (at a concentration of 0.2% in 1,3 propanediol, 1,2 propanediol and 1,3 butanediol) was “soluble”. In addition, the “ability to reduce erythema (skin redness)” value in the series on erythema (skin redness) is recorded as “desirable ability to reduce erythema”.
On to `COc1cc(CC(C(C)=O)C(C)=O)ccc1O` [Acetyl zingerone], for which the solubility entry in series [1] (at 0.5-1% in 1,3 propanediol, 1,2 propanediol and 1,3 butanediol) is listed as “readily soluble”.

Source of the values: patent publication US20230346661A1, “Anhydrous Azelaic Acid Topical Formulations” (Baek Clinical Inc., priority 2020, published 2023).
